Laboratory results reported in ChEMBL document CHEMBL1153901, “Synthesis and antibacterial activity evaluation of metronidazole-triazole conjugates” (Bioorg Med Chem Lett, 2009).
Values after ≈ are worked out from the molar mass of the structure shown. Active and inactive are the calls of the source. No cut-off for these calls is given here.

Experiments:
Type in all cases: functional, organism-based
Escherichia coli = test: Antibacterial activity against Escherichia coli after 24 hrs by NCCLS microdilution method
Pseudomonas aeruginosa = test: Antibacterial activity against Pseudomonas aeruginosa after 24 hrs by […] microdilution method
Staphylococcus aureus = test: Antibacterial activity against Staphylococcus aureus after 24 hrs by […] microdilution method
[1] = test system: Staphylococcus epidermidis; test: Antibacterial activity against Staphylococcus epidermidis after 24 hrs by […] microdilution method
Candida albicans = test: Antifungal activity against Candida albicans
Nakaseomyces glabratus = test: Antifungal activity against Candida glabrata
Geotrichum candidum = test: Antifungal activity against Geotrichum candidum

SMILES	IC50 (Escherichia coli) [µg/mL]	IC50 (Pseudomonas aeruginosa) [µg/mL]	IC50 (Staphylococcus aureus) [µg/mL]	IC50 [1] [µg/mL]	Activity (Candida albicans)	Activity (Nakaseomyces glabratus)	Activity (Geotrichum candidum)
Cc1ncc([N+](=O)[O-])n1CCn1cc(CO)nn1	0.091 (≈ 0.361 µM)	0.18 (≈ 0.714 µM)	0.35 (≈ 1.39 µM)	0.35 (≈ 1.39 µM)	inactive	inactive	inactive
Cc1ncc([N+](=O)[O-])n1CCn1cc(COc2ccc(Cl)cc2)nn1	0.003 (≈ 0.00827 µM)	0.02 (≈ 0.0551 µM)	0.13 (≈ 0.358 µM)	> 500	inactive	inactive	inactive
CC(=O)c1ccc(OCc2cn(CCn3c([N+](=O)[O-])cnc3C)nn2)cc1	> 500	> 500	> 500	> 500	–	–	–
Cc1ccc(OCc2cn(CCn3c([N+](=O)[O-])cnc3C)nn2)cc1	0.06 (≈ 0.175 µM)	0.03 (≈ 0.0876 µM)	0.13 (≈ 0.38 µM)	> 500	inactive	inactive	inactive
COCc1cn(CCn2c([N+](=O)[O-])cnc2C)nn1	> 500	> 500	> 500	> 500	–	–	–
Cc1ncc([N+](=O)[O-])n1CCn1cc(-c2ccccn2)nn1	0.12 (≈ 0.401 µM)	0.13 (≈ 0.434 µM)	0.13 (≈ 0.434 µM)	> 500	inactive	inactive	inactive
CCC(=O)OCc1cn(CCn2c([N+](=O)[O-])cnc2C)nn1	> 500	> 500	> 500	> 500	–	–	–
Cc1cccc(OCc2cn(CCn3c([N+](=O)[O-])cnc3C)nn2)c1	0.067 (≈ 0.196 µM)	0.068 (≈ 0.199 µM)	0.26 (≈ 0.759 µM)	> 500	inactive	inactive	inactive
Cc1ncc([N+](=O)[O-])n1CCn1cc(C2(O)CCCCC2)nn1	> 500	0.18 (≈ 0.562 µM)	> 500	> 500	inactive	inactive	inactive
Cc1ncc([N+](=O)[O-])n1CCn1cc(COc2ccc(C=O)cc2)nn1	0.07 (≈ 0.196 µM)	0.07 (≈ 0.196 µM)	> 500	> 500	inactive	inactive	inactive
Cc1ncc([N+](=O)[O-])n1CCn1cc(-c2cccnc2)nn1	> 500	> 500	0.31 (≈ 1.04 µM)	> 500	inactive	inactive	inactive
Cc1ncc([N+](=O)[O-])n1CCn1cc(CCO)nn1	> 500	> 500	> 500	> 500	–	–	–
Cc1ncc([N+](=O)[O-])n1CCn1cc(COc2ccc([N+](=O)[O-])cc2)nn1	> 500	> 500	> 500	> 500	–	–	–
Cc1ncc([N+](=O)[O-])n1CCn1cc(COc2ccccc2C=O)nn1	> 500	> 500	> 500	> 500	–	–	–
Cc1ncc([N+](=O)[O-])n1CCn1cc(CBr)nn1	> 500	> 500	> 500	> 500	–	–	–
Cc1ncc([N+](=O)[O-])n1CCn1cc(COc2ccccc2[N+](=O)[O-])nn1	> 500	> 500	> 500	> 500	–	–	–
CN(C)[C@@H]1C(O)=C(C(N)=O)C(=O)[C@@]2(O)C(O)=C3C(=O)c4c(O)cccc4[C@@](C)(O)[C@H]3C[C@@H]12 [TETRACYCLINE]	0.09 (≈ 0.203 µM)	0.06 (≈ 0.135 µM)	0.12 (≈ 0.27 µM)	0.08 (≈ 0.18 µM)	–	–	–
Cc1ncc([N+](=O)[O-])n1CCn1cc(COc2ccccc2)nn1	0.67 (≈ 2.04 µM)	0.13 (≈ 0.396 µM)	> 500	> 500	–	–	–
Cc1ncc([N+](=O)[O-])n1CCn1cc(-c2ccccc2)nn1	0.13 (≈ 0.436 µM)	0.13 (≈ 0.436 µM)	> 500	> 500	inactive	inactive	inactive
Cc1ccccc1OCc1cn(CCn2c([N+](=O)[O-])cnc2C)nn1	0.028 (≈ 0.0818 µM)	> 500	> 500	> 500	inactive	inactive	inactive
Cc1ncc([N+](=O)[O-])n1CCn1cc(COC2CCCCO2)nn1 (stereo not drawn)	> 500	> 500	> 500	> 500	–	–	–
Cc1ncc([N+](=O)[O-])n1CCn1cc(COc2ccccc2Cl)nn1	> 500	> 500	> 500	> 500	–	–	–
